Data from PMC4520593, “Virtual Screening of Peptide and Peptidomimetic Fragments Targeted to Inhibit Bacterial Dithiol Oxidase DsbA” (PLoS ONE, 2015).

Tests used:
Oxidized EcDsbA = target: T1, Oxidized EcDsbA (Escherichia coli, UniProt P0AEG4); assay: Isothermal titration calorimetry of compounds into EcDsbA; assay type: binding; settings: 25°C
T1 construct: made in house
Procedure: Oxidized EcDsbA was diluted to 50 μM in 25 mM HEPES pH 7.4, 50 mM NaCl and 5% DMSO. Compounds were dissolved in 100% DMSO, and then diluted to a final concentration of 2 mM into 25 mM HEPES pH 7.4 50 mM NaCl with a final DMSO concentration of 5%. All experiments were performed using the MicroCal Auto-ITC200 instrument (GE Healthcare, USA), loading 200 μL of EcDsbA in the sample cell and 40 μL of compound in the syringe. Titrations were set up at 25°C with 19 injections of 2 μL separated by 180 seconds and a constant stirring speed of 1000 rpm. A preliminary injection of 0.5 μL was added to avoid slow leakage of titrant into the sample cell before the first 2 μL injection and the corresponding data point was excluded from analysis. Every compound was tested with three technical replicates. An additional titration of compound into buffer only (25 mM HEPES pH 7.4, 50 mM NaCl and 5% DMSO) was performed to measure the background heat of dilution. Analysis was performed with the MicroCal Origin software (version 7.0552).

PmDsbA = target: PmDsbA; parameters: method as in PMID 24831013; settings: ITC; cited from earlier work

T1 sequence (P0AEG4 20-208): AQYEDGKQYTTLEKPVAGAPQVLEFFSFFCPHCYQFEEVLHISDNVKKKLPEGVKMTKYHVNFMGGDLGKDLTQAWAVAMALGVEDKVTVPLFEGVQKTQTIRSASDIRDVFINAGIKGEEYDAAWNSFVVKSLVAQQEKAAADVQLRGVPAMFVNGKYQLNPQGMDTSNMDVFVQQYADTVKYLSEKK

Compound | ITC binding to EcDsbA (Oxidized EcDsbA; 50 μM EcDsbA, 2 mM compound in syringe, 5% DMSO) | release of energy for the highest peak (ITC) (Oxidized EcDsbA; titration of EcDsbA) | Kd (PmDsbA) | ΔH (PmDsbA) | ΔS (PmDsbA)
O=C(NCc1ccccc1)[C@H](Cc1c[nH]c2ccccc12)NC(=O)N1CCOCC1 [Compound 1, (S)-2-[N-(Morpholine-1-carbonyl)amino]-3-(1H-indol-3-yl)-N-(benzyl)propanamide] | little evidence of binding | -0.60 µcal/s | – | – | –
PWATCDS | – | – | 8.3 ± 0.4 µM | -13.7 ± 0.3 kcal/mol | -22.3±1.1 cal.mol^-1.deg^-1
